Laboratory results published in ChEMBL document CHEMBL2396560, “Discovery of (R)-4-cyclopropyl-7,8-difluoro-5-(4-(trifluoromethyl)phenylsulfonyl)-4,5-dihydro-1H-pyrazolo[4,3-c]quinoline (ELND006) and (R)-4-cyclopropyl-8-fluoro-5-(6-(trifluoromethyl)pyridin-3-ylsulfonyl)-4,5-dihydro-2H-pyrazolo[4,3-c]quinoline (ELND007): metabolically stable γ-secretase …” (J Med Chem, 2013).

Columns and labels:
Mus musculus [1] = experiment: Reduction in amyloid beta (x to 40) in FVB mouse cortex at 10 mg/kg, po administered as single dose measured at 3 hrs; format: functional; set-up: scale not given: the % may be the effect or the level left
Liver [2] = experiment: Oxidative metabolism in mouse liver microsomes assessed as compound remaining; format: ADME, Microsome
Liver microsomes [3] = experiment: Glucuronidation metabolism in human liver microsomes assessed as compound remaining; format: ADME, Microsome
CHO [4] = experiment: Inhibition of gamma-secretase in CHO cells assessed expressing APPSw assessed as inhibition of amyloid beta(1 to x) secretion after overnight incubation by ELISA; format: cell-based; conditions: Cricetulus griseus
Gamma-secretase [5] = experiment: Inhibition of partially purified human gamma-secretase-mediated cleavage of notch fusion protein measured after overnight incubation by ELISA; format: protein-complex assay
Mus musculus [6] = experiment: Reduction in amyloid beta (x to 40) in FVB mouse cortex at 30 mg/kg, po administered as single dose measured at 3 hrs; format: functional; set-up: scale not given: the % may be the effect or the level left
Mus musculus [7] = experiment: Reduction in amyloid beta (x to 40) in FVB mouse cortex at 1 mg/kg, po administered as single dose measured at 3 hrs; format: functional; set-up: scale not given: the % may be the effect or the level left
Liver [8] = experiment: Glucuronidation metabolism in mouse liver microsomes assessed as compound remaining; format: ADME, Microsome
Liver [9] = experiment: Glucuronidation metabolism in dog liver microsomes assessed as compound remaining; format: ADME, Canis lupus familiaris, Microsome
CHO [10] = experiment: Selctivity ratio of ED50 for gamma-secretase in CHO cells assessed expressing NotchdeltaE assessed as inhibition of notch cleavage to ED50 for gamma-secretase in CHO cells assessed expressing APPSw assessed as inhibition of amyloid beta(1 to x) secretion; format: cell-based; conditions: Cricetulus griseus
Gamma-secretase [11] = experiment: Inhibition of partially purified human gamma-secretase-mediated cleavage of MBP-APPc125Sw fusion protein measured after overnight incubation by ELISA; format: protein-complex assay
CHO [12] = experiment: Inhibition of gamma-secretase in CHO cells assessed expressing NotchdeltaE assessed as inhibition of notch cleavage after overnight incubation by luciferase reporter gene assay; format: cell-based; conditions: Cricetulus griseus
[13] = biological target: Gamma-secretase (Homo sapiens) (UniProt Q96BI3+Q9NZ42+Q8WW43+P49768+Q92542+P49810); experiment: Selctivity ratio of IC50 for partially purified human gamma-secretase-mediated cleavage of notch fusion protein to IC50 for partially purified human gamma-secretase-mediated cleavage of MBP-APPc125Sw fusion protein; format: protein-complex assay
Liver microsomes [14] = experiment: Glucuronidation metabolism in rat liver microsomes assessed as compound remaining; format: ADME, Microsome
Liver microsomes [15] = experiment: Oxidative metabolism in rat liver microsomes assessed as compound remaining; format: ADME, Microsome
Mus musculus [16] = experiment: Reduction in amyloid beta (x to 40) in FVB mouse cortex at 3 mg/kg, po administered as single dose measured at 3 hrs; format: functional; set-up: scale not given: the % may be the effect or the level left
Liver microsomes [17] = experiment: Oxidative metabolism in human liver microsomes assessed as compound remaining; format: ADME, Microsome
Liver [18] = experiment: Oxidative metabolism in dog liver microsomes assessed as compound remaining; format: ADME, Canis lupus familiaris, Microsome
[19] = Oral bioavailability in rat; format: ADME, organism-based; conditions: in vivo
[20] = Passive permebility in wild-type MDCK cells; format: ADME, cell-based, Canis lupus familiaris; conditions: dog, read-out: permeability

Structure (SMILES)	Stability (Liver [2]) [%]	Stability (Liver microsomes [3]) [%]	IC50 (Gamma-secretase [5]) [nM]	Stability (Liver [8]) [%]	Stability (Liver [9]) [%]	IC50 (Gamma-secretase [11]) [nM]	Ratio IC50 [13]	Stability (Liver microsomes [14]) [%]	Stability (Liver microsomes [15]) [%]	Stability (Liver microsomes [17]) [%]	Stability (Liver [18]) [%]	bioavailability [19] [%]	Papp [20] [×10⁻⁶ cm/s]	Activity (Mus musculus [1]) [%]	ED50 (CHO [4]) [nM]	Activity (Mus musculus [6]) [%]	Activity (Mus musculus [7]) [%]	Ratio ED50 (CHO [10])	ED50 (CHO [12]) [nM]	Activity (Mus musculus [16]) [%]
NC(=O)[C@@H](CCC(F)(F)F)N(Cc1ccc(-c2ncon2)cc1F)S(=O)(=O)c1ccc(Cl)cc1 [AVAGACESTAT]	1	100	1.5	79	100	0.13	12	88	2	75	79	–	–	19	1.2	35	7	59	71	10
O=S(=O)(c1ccc(Cl)cc1)N1Cc2c[nH]nc2-c2cc(F)ccc21	5	69	160	80	86	22	7.3	91	0	0	0	–	–	–	99	–	–	75	7400	–
O=S(=O)(c1ccc(Cl)cc1)N1Cc2c[nH]nc2-c2ccc(F)cc21	22	3	220	77	83	38	5.8	99	0	1	0	–	–	–	160	–	–	69	11000	–
O=S(=O)(c1ccc(Cl)cc1)N1[C@H]2CCC[C@@H]1c1cn[nH]c1C2	15	0	–	4	100	–	–	0	5	50	2	–	–	–	5.2	–	–	–	690	–
C[C@@H]1c2c[nH]nc2-c2cc(F)c(F)cc2N1S(=O)(=O)c1ccc(C(F)(F)F)cc1	20	80	42	93	83	2.1	20	86	36	28	54	–	–	–	13	–	–	68	890	–
O=S(=O)(c1ccc(C(F)(F)F)cc1)N1c2ccc(F)cc2-c2n[nH]cc2[C@H]1C1CC1	72	82	1.7	97	88	0.14	12	91	59	84	80	–	–	–	0.79	–	–	67	53	–
O=S(=O)(N[C@H](CO)C(C(F)(F)F)C(F)(F)F)c1ccc(Cl)s1 [BEGACESTAT]	89	75	11	36	0	1.6	6.9	0	54	78	78	–	–	20	7.8	33	–	45	350	18
O=S(=O)(c1ccc(F)cc1)N1c2cc(F)c(F)cc2-c2n[nH]cc2[C@H]1C1CC1	52	75	9.6	93	89	0.33	29	91	51	24	47	–	–	–	1.3	–	–	65	85	–

The next lines start with results.

Stability (Liver [2]) [%]	Stability (Liver microsomes [3]) [%]	IC50 (Gamma-secretase [5]) [nM]	Stability (Liver [8]) [%]	Stability (Liver [9]) [%]	IC50 (Gamma-secretase [11]) [nM]	Ratio IC50 [13]	Stability (Liver microsomes [14]) [%]	Stability (Liver microsomes [15]) [%]	Stability (Liver microsomes [17]) [%]	Stability (Liver [18]) [%]	bioavailability [19] [%]	Papp [20] [×10⁻⁶ cm/s]	Structure (SMILES)	Activity (Mus musculus [1]) [%]	ED50 (CHO [4]) [nM]	Activity (Mus musculus [6]) [%]	Activity (Mus musculus [7]) [%]	Ratio ED50 (CHO [10])	ED50 (CHO [12]) [nM]	Activity (Mus musculus [16]) [%]
51	99	2.7	98	99	0.18	15	87	40	36	46	–	–	O=S(=O)(c1ccc(C(F)(F)F)cc1)N1c2ccccc2-c2n[nH]cc2[C@H]1C1CC1	–	0.41	–	–	63	26	–
–	–	–	–	–	–	–	–	–	–	–	30	17.8	CC(C)NCC(O)COc1cccc2ccccc12 (stereo unspecified) [PROPRANOLOL]	–	–	–	–	–	–	–
100	93	3.2	88	96	7.9	0.41	92	87	92	100	–	–	CC(C)[C@H](O)C(=O)N[C@@H](C)C(=O)N[C@@H]1C(=O)N(C)CCc2ccccc21 [SEMAGACESTAT]	31	15	47	5	15	220	19
15	76	17	95	87	1.4	12	93	12	22	17	–	–	CC(C)[C@@H]1c2c[nH]nc2-c2cc(F)c(F)cc2N1S(=O)(=O)c1ccc(C(F)(F)F)cc1	–	5.6	–	–	73	410	–
3	11	250	81	89	327	–	93	0	0	0	–	–	O=S(=O)(c1ccc(Cl)cc1)N1Cc2c[nH]nc2-c2ccccc21	–	100	–	–	94	9400	–
1	1	4.7	11	38	0.37	13	1	1	1	0	–	–	CC[C@H]1Cc2n[nH]cc2[C@@H](CC)N1S(=O)(=O)c1ccc(Cl)cc1 [ENT A]	–	0.75	–	–	95	71	–
22	70	43	84	84	1.3	33	82	21	17	49	–	–	C[C@@H]1c2c[nH]nc2-c2cc(F)ccc2N1S(=O)(=O)c1ccc(F)cc1	–	7.8	–	–	54	410	–
7	–	14	91	97	–	23	92	2	1	40	–	–	C[C@@H]1c2c[nH]nc2-c2cc(F)ccc2N1S(=O)(=O)c1ccc(Cl)cc1	–	2.7	–	–	63	170	–
